This is an account of results in patent US20240279232A1, “USE OF SUBSTITUTED 5-(4-METHYL-6-PHENYL-4H-BENZO[F]IMIDAZO[1,5-A][1,4] DIAZEPIN-3-YL)-1,2,4-O[…] THE TREATMENT OF INFLAMMATORY CONDITIONS” (priority 2021, published 2024).

Molecules are shown by their SMILES.

The test system of one data set is HEK293. The experiment in a line: Viability assay (CellTiter-Glo), HEK293. The class given is cell-based, human. The conditions noted are these: for Cell viability (%) HEK293 120 μM: CellTiter-Glo; for toxicity at 120 μM (in words): HEK293, 120 μM. On the technique in general: Cellular ATP, detected with luciferase, serves as a proxy for viable cell number.
Another data set deals with Mouse microglia. The experiment in a line: NO production (Griess assay), LPS/IFNγ-activated mouse microglia. The conditions noted are these: for inhibition at 10 µM / inhibition at 50 µM: Mus musculus, Microglia, 24 h. The format is cell-based. In general terms: Nitrite, measured by Griess reagent, commonly stands in for NO production.

For `CCOC(=O)c1ncn2c1[C@@H](C)N=C(c1ccccn1)c1cc(Br)ccc1-2` [GL-II-06], the “Cell viability (%) HEK293 120 μM” value in the data set on HEK293 amounted to 83 ± 13%. This compound registered an inhibition at 10 µM in the data set on Mouse microglia of 14 ± 3%.

Turning to `C[C@H]1N=C(c2ccccn2)c2cc(Br)ccc2-n2cnc(C(=O)O)c21` [GL-II-51], the “Cell viability (%) HEK293 120 μM” value with HEK293 worked out at 91 ± 4%. Further, the inhibition at 10 µM in the data set with Mouse microglia is 9 ± 4%.

Turning to `C[C@H]1N=C(c2ccccc2F)c2cc(Br)ccc2-n2cnc(-c3cnco3)c21` [GL-III-36], in the data set with HEK293, the “Cell viability (%) HEK293 120 μM” value is 80 ± 9%. Also, in the data set on Mouse microglia, testing at 10 µM gave an inhibition of 8 ± 5% and the inhibition at 50 µM was found to be 41 ± 7%.

Consider `CCOC(=O)c1ncn2c1[C@@H](C)N=C(c1ccccc1F)c1cc(C3CC3)ccc1-2` [GL-III-42], for which the “Cell viability (%) HEK293 120 μM” value in the data set on HEK293 is 62 ± 11%. The same compound registered an inhibition at 10 µM in the data set on Mouse microglia of 55 ± 12%.

Take `C[C@H]1N=C(c2ccccc2F)c2cc(Cl)ccc2-n2cnc(C(=O)O)c21` [GL-III-54]: the “Cell viability (%) HEK293 120 μM” value in the data set with HEK293 came out at 96 ± 12%. The compound further showed an inhibition at 10 µM in the data set on Mouse microglia of 31 ± 9%.

`Cc1noc(-c2ncn3c2[C@@H](C)N=C(c2ccccc2F)c2cc(Br)ccc2-3)n1` [GL-III-60, (R)-5-(8-Bromo-6-(2-fluorophenyl)-4-methyl-4H-benzo[f]imidazo[1,5-a][1,4]diazepin-3-yl)-3-methyl-1,2,4-oxadiazole]: the “Cell viability (%) HEK293 120 μM” value in the data set with HEK293 came out at 64 ± 6%. For the same compound, in the data set on Mouse microglia, the inhibition at 10 µM stood at 55 ± 8% and 50 µM produced 68 ± 8% inhibition.

For the compound `Cc1noc(-c2ncn3c2[C@@H](C)N=C(c2ccccc2F)c2cc(C4CC4)ccc2-3)n1` [GL-III-63, (R)-5-(8-Cyclopropyl-6-(2-fluorophenyl)-4-methyl-4H-benzo[f]imidazo[1,5-a][1,4]diazepin-3-yl)-3-methyl-1,2,4-oxadiazole], in the data set with HEK293, the “Cell viability (%) HEK293 120 μM” value is recorded as 18 ± 4% and the “toxicity at 120 μM (in words)” value was “toxic”. Further, in the data set on Mouse microglia, the inhibition at 10 µM came out at 25 ± 4% and the inhibition at 50 µM is 89 ± 12%.

In the case of `C#Cc1ccc2c(c1)C(c1ccccc1F)=N[C@H](C)c1c(C(=O)NC(C)C)ncn1-2` [GL-III-66], the “Cell viability (%) HEK293 120 μM” value in the data set with HEK293 came out at 46 ± 4%. In the data set with Mouse microglia, 10 µM produced 13 ± 2% inhibition.

For `CCNC(=O)c1ncn2c1[C@@H](C)N=C(c1ccccc1F)c1cc(C3CC3)ccc1-2` [GL-III-68], the “Cell viability (%) HEK293 120 μM” value in the data set on HEK293 turned out to be 56 ± 11%. Moreover, in the data set with Mouse microglia, at 10 µM the inhibition was 24 ± 5%.

In the case of `C[C@H]1N=C(c2ccccc2F)c2cc(Br)ccc2-n2cnc(C(=O)N(C)C)c21` [GL-III-69], in the data set with HEK293, the “Cell viability (%) HEK293 120 μM” value worked out at 73 ± 10%. The inhibition at 10 µM with Mouse microglia amounted to 37 ± 6%.

With `C[C@H]1N=C(c2ccccc2F)c2cc(C3CC3)ccc2-n2cnc(C(=O)N(C)C)c21` [GL-III-70], in the data set on HEK293, the “Cell viability (%) HEK293 120 μM” value is reported as 86 ± 12%. In addition, the inhibition at 10 µM in the data set on Mouse microglia was 32 ± 4%.

As for `C#Cc1ccc2c(c1)C(c1ccccc1F)=N[C@H](C)c1c(-c3cnco3)ncn1-2` [GL-III-73], in the data set on HEK293, the “Cell viability (%) HEK293 120 μM” value is 86 ± 6%. The compound further came in with an inhibition at 10 µM in the data set with Mouse microglia of 40 ± 3%.

Take `C[C@@H]1N=C(c2ccccc2F)c2cc(Br)ccc2-n2cnc(-c3cnco3)c21` [GL-III-76]: in the data set with HEK293, the “Cell viability (%) HEK293 120 μM” value is listed as 59 ± 4%. In the data set on Mouse microglia, the inhibition at 10 µM stood at 34 ± 1%.

With `C#Cc1ccc2c(c1)C(c1ccccc1F)=N[C@@H](C)c1c(-c3cnco3)ncn1-2` [GL-III-78], the “Cell viability (%) HEK293 120 μM” value in the data set with HEK293 is 56 ± 8%. The compound also registered an inhibition at 10 µM in the data set with Mouse microglia of 39 ± 5%.

With `CCc1noc(-c2ncn3c2[C@@H](C)N=C(c2ccccc2F)c2cc(C4CC4)ccc2-3)n1` [GL-IV-03, (R)-5-(8-Cyclopropyl-6-(2-fluorophenyl)-4-methyl-4H-benzo[f]imidazo[1,5-a][1,4]diazepin-3-yl)-3-ethyl-1,2,4-oxadiazole], in the data set with HEK293, the “Cell viability (%) HEK293 120 μM” value is 47 ± 5% and the “toxicity at 120 μM (in words)” value was “some cytotoxicity”. Testing at 10 µM in the data set with Mouse microglia gave an inhibition of 90%.

In the case of `C#Cc1ccc2c(c1)C(c1ccccc1F)=N[C@H](C)c1c(C(=O)NC)ncn1-2` [MP-III-022], the “Cell viability (%) HEK293 120 μM” value with HEK293 worked out at 75 ± 13%. In the data set with Mouse microglia, the inhibition at 10 µM is 36 ± 6% and the inhibition at 50 µM amounted to 60 ± 12%.

Turning to `C#Cc1ccc2c(c1)C(c1ccccc1F)=N[C@H](C)c1c(-c3nc(C)no3)ncn1-2` [MP-IV-004], the “Cell viability (%) HEK293 120 μM” value in the data set with HEK293 is 40 ± 8%. Moreover, in the data set on Mouse microglia, 10 µM produced 34 ± 5% inhibition and the inhibition at 50 µM amounted to 60 ± 6%.

In the case of `C#Cc1ccc2c(c1)C(c1ccccc1F)=N[C@H](C)c1c(-c3nc(C(C)C)no3)ncn1-2` [MP-IV-010, (R)-5-(8-ethynyl-6-(2-fluorophenyl)-4-methyl-4H-benzo[f]imidazo[1,5-a][1,4]diazepin-3-yl)-3-isopropyl-1,2,4-oxadiazole], in the data set with HEK293, the “Cell viability (%) HEK293 120 μM” value is given as 41 ± 4% and the “toxicity at 120 μM (in words)” value is reported as “some cytotoxicity”. In the data set with Mouse microglia, this compound yielded an inhibition at 10 µM of 66 ± 13% and an inhibition at 50 µM of 96 ± 13%. Moreover, in the data set with Mouse microglia (dexamethasone 100 nM, GABA 1 μM, MP-IV-010 50 μM, GL-II-33 in the library screen), the “NO production of activated microglia (in words)” value was “significant reduction”.

As usually defined, the inhibition is the percentage by which the read-out fell short of the control. Low readings indicate a response near the control, high ones a response far below the control.
